From ChEMBL document CHEMBL1136067, “The activity of diguanidino and 'reversed' diamidino 2,5-diarylfurans versus Trypanosoma cruzi and Leishmania donovani” (Bioorg Med Chem Lett, 2003)

Assays:
Nucleic Acid [1] = test system: Nucleic Acid
Description: DNA binding affinity measured as an increase in thermal melting of poly(dA.dT)2

[2] = Cell toxicity was evaluated; type: functional
Nucleic Acid [3] = test system: Nucleic Acid; remark: listed apart in the source
Trypanosoma cruzi = assay: Inhibitory activity against Trypanosoma cruzi; type: functional, organism-based
Leishmania donovani [4] = assay: Inhibitory activity against Leishmania donovani (amastigote); type: functional, organism-based
Leishmania donovani [5] = assay: Inhibitory activity against Leishmania donovani (macrophage); type: functional, organism-based

## CCOc1cc(-c2ccc(-c3ccc(N=C(N)N)c(OCC)c3)o2)ccc1N=C(N)N
Nucleic Acid [1]
  ΔTm: 16.5
[2]
  IC50: 74 µM
Nucleic Acid [3]
  ΔTm: 6.8
Trypanosoma cruzi
  IC50: 152 µM
Leishmania donovani [4]; read-out: IC50
  IC50: 11.2 µM
Leishmania donovani [5]
  IC50: > 40 µM

## N=C(Nc1ccc(-c2ccc(-c3ccc(NC(=N)c4ccccn4)c(Cl)c3)o2)cc1Cl)c1ccccn1
Nucleic Acid [1]
  ΔTm: 0.6
[2]
  IC50: 128 µM
Nucleic Acid [3]
  ΔTm: 1.5
Trypanosoma cruzi
  IC50: 0.5 µM
Leishmania donovani [4]; read-out: IC50
  IC50: 0.51 µM

## CC(C)Oc1cc(NC(=N)N)ccc1-c1ccc(-c2ccc(NC(=N)N)cc2OC(C)C)o1
Nucleic Acid [1]
  ΔTm: 12
[2]
  IC50: 16 µM
Nucleic Acid [3]
  ΔTm: 1.5
Trypanosoma cruzi
  IC50: 35 µM
Leishmania donovani [4]; read-out: IC50
  IC50: 9.65 µM
Leishmania donovani [5]
  IC50: > 6 µM

## N=C(N)Nc1ccc(-c2ccc(-c3ccc(N=C(N)N)c(Cl)c3)o2)cc1Cl
Nucleic Acid [1]
  ΔTm: 12.7
[2]
  IC50: 35.7 µM
Nucleic Acid [3]
  ΔTm: 2.6
Trypanosoma cruzi
  IC50: 44 µM
Leishmania donovani [4]; read-out: IC50
  IC50: > 50 µM
Leishmania donovani [5]
  IC50: > 6.3 µM

## N=C(Nc1ccc(-c2ccc(-c3ccc(NC(=N)c4ccccc4)cc3)o2)cc1)c1ccccc1
Nucleic Acid [1]
  ΔTm: 28
[2]
  IC50: 3.8 µM
Nucleic Acid [3]
  ΔTm: 15
Trypanosoma cruzi
  IC50: 13.7 µM
Leishmania donovani [4]; read-out: IC50
  IC50: > 100 µM
Leishmania donovani [5]
  IC50: > 8 µM

## Cc1cc(NC(=N)c2ccccn2)ccc1-c1ccc(-c2ccc(NC(=N)c3ccccn3)cc2C)o1
Nucleic Acid [1]
  ΔTm: 22.6
[2]
  IC50: 11.3 µM
Nucleic Acid [3]
  ΔTm: 8.9
Trypanosoma cruzi
  IC50: 0.21 µM
Leishmania donovani [4]; read-out: IC50
  IC50: 0.38 µM
Leishmania donovani [5]
  IC50: 0.6 µM

## CSc1cc(-c2ccc(-c3ccc(N=C(N)N)c(SC)c3)o2)ccc1N=C(N)N
Nucleic Acid [1]
  ΔTm: 12.2
[2]
  IC50: 68 µM
Nucleic Acid [3]
  ΔTm: 2.6
Trypanosoma cruzi
  IC50: 114 µM
Leishmania donovani [4]; read-out: IC50
  IC50: 22.6 µM
Leishmania donovani [5]
  IC50: > 19 µM

## COc1cc(NC(=N)N)ccc1-c1ccc(-c2ccc(NC(=N)N)cc2OC)o1
Nucleic Acid [1]
  ΔTm: 15.2
[2]
  IC50: 20 µM
Nucleic Acid [3]
  ΔTm: 2.8
Trypanosoma cruzi
  IC50: 1.3 µM
Leishmania donovani [4]; read-out: IC50
  IC50: 18.7 µM
Leishmania donovani [5]
  IC50: 5.2 µM

## N=C(N)c1ccc(OCCCCCOc2ccc(C(=N)N)cc2)cc1 [PENTAMIDINE]
Nucleic Acid [1]
  ΔTm: 12.8
[2]
  IC50: 4.2 µM
Nucleic Acid [3]
  ΔTm: 4.8
Trypanosoma cruzi
  IC50: 7.1 µM
Leishmania donovani [4]
  IC50: 2.6 µM
Leishmania donovani [5]
  IC50: 9.3 µM

## COc1cc(-c2ccc(-c3ccc(N=C(N)N)c(OC)c3)o2)ccc1N=C(N)N
Nucleic Acid [1]
  ΔTm: 15.4
[2]
  IC50: 39.6 µM
Nucleic Acid [3]
  ΔTm: 6.2
Trypanosoma cruzi
  IC50: 29 µM
Leishmania donovani [4]; read-out: IC50
  IC50: 14.5 µM
Leishmania donovani [5]
  IC50: > 29 µM

## CCCCCCCCCCCCCCCCOP(=O)([O-])OCC[N+](C)(C)C [MILTEFOSINE]
Leishmania donovani [5]
  IC50: 1 µM

## N=C(N)Nc1ccc(-c2ccc(-c3ccc(NC(=N)N)cc3C(F)(F)F)o2)c(C(F)(F)F)c1
Nucleic Acid [1]
  ΔTm: 5.9
[2]
  IC50: 11.3 µM
Nucleic Acid [3]
  ΔTm: 0
Trypanosoma cruzi
  IC50: 31.2 µM
Leishmania donovani [4]; read-out: IC50
  IC50: 14.8 µM
Leishmania donovani [5]
  IC50: > 5.6 µM

## N=C(N)Nc1ccc(-c2ccc(-c3ccc(NC(=N)N)cc3Cl)o2)c(Cl)c1
Nucleic Acid [1]
  ΔTm: 26.1
[2]
  IC50: 14.2 µM
Nucleic Acid [3]
  ΔTm: 4.7
Trypanosoma cruzi
  IC50: 27 µM
Leishmania donovani [4]; read-out: IC50
  IC50: 6.2 µM
Leishmania donovani [5]
  IC50: > 6.8 µM

## Cc1c(N=C(N)N)ccc(-c2ccc(-c3ccc(N=C(N)N)c(C)c3C)o2)c1C
Nucleic Acid [1]
  ΔTm: 3.8
[2]
  IC50: 33.4 µM
Nucleic Acid [3]
  ΔTm: 1.3
Trypanosoma cruzi
  IC50: 2.7 µM
Leishmania donovani [4]; read-out: IC50
  IC50: 4.2 µM
Leishmania donovani [5]
  IC50: > 19 µM

## N=C(N)Nc1ccc(-c2ccc(-c3ccc(NC(=N)N)cc3)o2)cc1
Nucleic Acid [1]
  ΔTm: 21.6
[2]
  IC50: 143 µM
Nucleic Acid [3]
  ΔTm: 10.8
Trypanosoma cruzi
  IC50: 86 µM
Leishmania donovani [4]; read-out: IC50
  IC50: 10.9 µM
Leishmania donovani [5]
  IC50: > 24 µM

## Cc1cc(NC(=N)N)ccc1-c1ccc(-c2ccc(NC(=N)N)cc2C)o1
Nucleic Acid [1]
  ΔTm: 17.8
[2]
  IC50: 14.6 µM
Nucleic Acid [3]
  ΔTm: 6.9
Trypanosoma cruzi
  IC50: 3.2 µM
Leishmania donovani [4]; read-out: IC50
  IC50: 3.3 µM
Leishmania donovani [5]
  IC50: > 6 µM

## N=C(Nc1ccc(-c2ccc(-c3ccc(NC(=N)c4ccccn4)cc3Cl)o2)c(Cl)c1)c1ccccn1
Nucleic Acid [1]
  ΔTm: 5.2
[2]
  IC50: 8 µM
Nucleic Acid [3]
  ΔTm: 0
Trypanosoma cruzi
  IC50: 0.49 µM
Leishmania donovani [4]; read-out: IC50
  IC50: 0.66 µM
Leishmania donovani [5]
  IC50: 0.13 µM

## N=C(Nc1ccc(-c2ccc(-c3ccc(NC(=N)c4ccccn4)cc3)o2)cc1)c1ccccn1
Nucleic Acid [1]
  ΔTm: 19.6
[2]
  IC50: 17.1 µM
Nucleic Acid [3]
  ΔTm: 7.5
Trypanosoma cruzi
  IC50: 9.6 µM
Leishmania donovani [4]; read-out: IC50
  IC50: 0.55 µM
Leishmania donovani [5]
  IC50: 1.45 µM

## COc1cc(-c2ccc(-c3ccc(/N=C(\N)c4ccccn4)c(OC)c3)o2)ccc1/N=C(\N)c1ccccn1
Nucleic Acid [1]
  ΔTm: 15.2
[2]
  IC50: 7.9 µM
Nucleic Acid [3]
  ΔTm: 6.6
Trypanosoma cruzi
  IC50: 1 µM
Leishmania donovani [4]; read-out: IC50
  IC50: 0.29 µM
Leishmania donovani [5]
  IC50: 0.16 µM

## CSc1cc(-c2ccc(-c3ccc(/N=C(\N)c4ccccn4)c(SC)c3)o2)ccc1/N=C(\N)c1ccccn1
Nucleic Acid [1]
  ΔTm: 1
[2]
  IC50: 7.3 µM
Nucleic Acid [3]
  ΔTm: 0
Trypanosoma cruzi
  IC50: 0.15 µM
Leishmania donovani [4]; read-out: IC50
  IC50: 0.35 µM
Leishmania donovani [5]
  IC50: 0.15 µM

## COc1cc(NC(=N)c2ccccn2)ccc1-c1ccc(-c2ccc(NC(=N)c3ccccn3)cc2OC)o1
Nucleic Acid [1]
  ΔTm: 19
[2]
  IC50: 12.7 µM
Nucleic Acid [3]
  ΔTm: 7.8
Trypanosoma cruzi
  IC50: 0.57 µM
Leishmania donovani [4]; read-out: IC50
  IC50: 0.1 µM
Leishmania donovani [5]
  IC50: 0.48 µM

## Cc1c(/N=C(\N)c2ccccn2)ccc(-c2ccc(-c3ccc(/N=C(\N)c4ccccn4)c(C)c3C)o2)c1C
Nucleic Acid [1]
  ΔTm: 13.8
[2]
  IC50: 60.6 µM
Nucleic Acid [3]
  ΔTm: 4.2
Trypanosoma cruzi
  IC50: 0.91 µM
Leishmania donovani [4]; read-out: IC50
  IC50: 1.14 µM
Leishmania donovani [5]
  IC50: 3.6 µM

## O=C(Cn1ccnc1[N+](=O)[O-])NCc1ccccc1 [BENZNIDAZOLE]
Trypanosoma cruzi
  IC50: 1.27 µM

## N=C(N)c1ccc(-c2ccc(-c3ccc(C(=N)N)cc3)o2)cc1 [FURAMIDINE]
Nucleic Acid [1]
  ΔTm: 25
[2]
  IC50: 6.4 µM
Nucleic Acid [3]
  ΔTm: 11.7
Trypanosoma cruzi
  IC50: 23.3 µM
Leishmania donovani [4]; read-out: IC50
  IC50: 2.7 µM
